Results taken from US9889129B2, “Method of modulating ribonucleotide reductase” (Case Western Reserve University, priority 2012, dated 2018).
Read-outs that look alike come from different tables or passages of the source.

Legend:
[1] = system: A549 non-small cell lung cells; pancreatic cells (Panc-1); colon cells (HCT-116); assay: MTT Assay II; format: cell-based
Excerpt: We conducted an MTT assay to measure cell metabolism as a surrogate for cell number using A549, Non-Small Cell Lung cells; pancreatic cells (Panc-1); and colon cells (HCT-116).

RR = biological target: T1, RR (Homo sapiens, UniProt P23921); assay: RR inhibition by ligands with anticancer properties (Table 4)
T1 sequence (P23921 1-792): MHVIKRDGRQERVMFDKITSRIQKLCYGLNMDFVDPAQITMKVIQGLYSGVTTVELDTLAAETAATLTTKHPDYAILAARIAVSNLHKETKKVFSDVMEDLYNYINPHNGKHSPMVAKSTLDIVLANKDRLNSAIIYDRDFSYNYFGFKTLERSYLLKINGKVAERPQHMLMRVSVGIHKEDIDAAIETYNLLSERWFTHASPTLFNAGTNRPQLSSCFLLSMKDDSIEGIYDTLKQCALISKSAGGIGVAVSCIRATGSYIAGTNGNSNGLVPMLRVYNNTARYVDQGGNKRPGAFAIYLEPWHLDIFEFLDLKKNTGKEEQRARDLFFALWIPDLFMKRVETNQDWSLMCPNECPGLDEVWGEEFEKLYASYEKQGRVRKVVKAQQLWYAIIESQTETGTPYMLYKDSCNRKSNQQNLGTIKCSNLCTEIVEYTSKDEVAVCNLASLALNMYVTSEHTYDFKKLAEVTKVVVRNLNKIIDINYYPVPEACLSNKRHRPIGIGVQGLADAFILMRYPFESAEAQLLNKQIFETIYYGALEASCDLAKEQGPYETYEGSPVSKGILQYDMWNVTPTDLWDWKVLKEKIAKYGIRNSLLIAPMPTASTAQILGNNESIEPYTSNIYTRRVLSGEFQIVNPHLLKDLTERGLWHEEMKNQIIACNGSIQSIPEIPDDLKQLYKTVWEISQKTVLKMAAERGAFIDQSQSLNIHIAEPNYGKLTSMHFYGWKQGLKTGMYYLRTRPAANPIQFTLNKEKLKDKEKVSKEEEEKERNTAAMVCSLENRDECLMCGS

[2] = system: MDA-MB-231 human breast carcinoma cell line; assay: Growth inhibition studies on MDA-MB-231; format: cell-based
Excerpt: Growth inhibition studies on MDA-MB-231 human breast carcinoma cell line in the presence of gemcitabine (F2CDP-red) or cis-platin (CDDP-blue) alone (solid lines), or in combination with a non-toxic does of compound 2 (dashed lines).
Growth of the MDA-MB-231 cancer cell line is inhibited by compound 3.

[3] = system: A549 non-small cell lung cells; 231 triple negative breast cells; LN229; assay: MTT Assay I; format: cell-based; conditions: continuous doses for three days; for IC50: 72 h, range over A549, 231, LN229; for ACTIVITY: A549, 231, LN229
Experimental: We conducted an MTT assay to measure cell metabolism as a surrogate for cell number using A549, Non-Small Cell Lung cells; 231, Triple negative breast cells; and LN229. All values are relative to untreated controls, corrected for any MTT absorbance due to media alone.
The cells were treated with continuous doses of the indicated drugs for three days, at which time the MTT assay was run. The control is listed as a dose of 0.1 uM because we plot on a log scale and wish to avoid taking the log of 0 in the calculations.

[4] = system: ribonucleotide reductase activity; assay: DNA synthesis assay
Excerpt: The IC50 of a drug can be determined by constructing a
dose-response curve and examining the effect of different concentrations of a candidate agent on cell growth and/or ribonucleotide reductase enzyme activity. IC50 values can be calculated for a given compound by determining the concentration needed to inhibit half of the maximum biological response of the compound.

[5] = A549, Panc-1, HCT-116, read-out: IC50

Q: Which results are given for `O=C(CCCCCCCCC(=O)N/N=C/c1c(O)ccc2ccccc12)N/N=C/c1c(O)ccc2ccccc12` [Compound 1]?
A: IC50 [1, 5]: 0.6 to 2 µM; IC50 (RR): 0.6 to 2 µM

Q: Which IC50 [1, 5] does the source give for `OC(COc1ccc(OCC(O)CN2CCN(C3c4ccccc4-c4ccccc43)CC2)cc1)CN1CCN(C2c3ccccc3-c3ccccc32)CC1` (stereo not shown) [Compound 2] here?
A: Its IC50 is 3 to 8 µM.

Q: And the “effect on cytotoxicity of gemcitabine or cis-platin” value ([2]; combination with a non-toxic dose of compound 2)?
A: The value was “increases cytotoxicity of gemcitabine of cis-platin”.

Q: `O=C(CC1CCCCC1)N/N=C\c1cccc2cccc(O)c12` [Compound 3] was tested. Which “cytotoxicity / growth inhibition” value ([2]; single agent) did it give?
A: Its value is “cytotoxic against human breast carcinoma cells”.

Q: What about the IC50 (RR) of the same compound?
A: The IC50 was 0.225 µM.

Q: `OC(COc1ccc2c(c1)CCC2)CN1CCN(Cc2ccccc2)CC1` (stereo not shown) [Compound 4] was tested. Which IC50 (RR) did it give?
A: The IC50 was 5 to 10 µM.

Q: With `CCCCCCCCCCCCC(=O)NCC(=O)NC(CCCCN)C(=O)OC` (stereo not shown) [Compound 5] as the compound, how does the IC50 (RR) read?
A: Its IC50 is 5 to 10 µM.

Q: `O=C(CCCCCCCCC(=O)N/N=C/c1c(O)ccc2ccccc12)N/N=C/c1c(O)ccc2ccccc12` [Drug 1] was tested. Which IC50 [3] did it give?
A: The IC50 was 0.8 to 2 µM.

Q: What about the ACTIVITY [3] of the same compound?
A: Its ACTIVITY is “Steady effect on all three cell lines”.

Q: And the IC50 [4]?
A: Its IC50 is at most 1 µM.

Q: What about the ACTIVITY ([4]; DNA synthesis assay, exposed for 2 continuous days) of the same compound?
A: The ACTIVITY was “most potent”.

Q: Which IC50 [3] does the source give for `OC(COc1ccc(OCC(O)CN2CCN(C3c4ccccc4-c4ccccc43)CC2)cc1)CN1CCN(C2c3ccccc3-c3ccccc32)CC1` (stereo not shown) [Drug 2] here?
A: Its IC50 is 3 to 12 µM.

Q: What about the ACTIVITY [3] of the same compound?
A: The ACTIVITY was “Shows an extremely dramatic effect”.

Q: Which IC50 [4] does the source give for `Cc1c2c(c(O)c3c(O)ccc(Cl)c13)C(=O)C1(O)C(=O)C(C(=O)O)=C(O)C(N(C)C)C1C2` (stereo not shown) [Drug 4] here?
A: The IC50 was 50 to 100 µM.

Q: `Nc1ccn([C@@H]2O[C@H](CO)[C@@H](O)C2(F)F)c(=O)n1` [Gemcitabien, reference compound] was tested. Which IC50 ([1]; A549, Panc-1, HCT-116, read-out: IC50s) did it give?
A: Its IC50 is 0.1 to 0.5 µM.
